From patent US9187458B2, “Cyanoquinoline derivatives” (Tianjin Hemay Bio-Tech Co., LTD., priority 2010, dated 2015)

Experiments:
A431 cells = assay: A431 Cell Growth Inhibition Test (MTT Assay); type: cell-based, human; conditions: for IC50 / inhibition at 1 µM: Homo sapiens; for IC50: A-431, 68 h incubation; for Growth Inhibition Ratio (%) / inhibition at 1 µM: compound 1 μM, 68 h incubation; for inhibition at 1 µM: A-431, 68 h, read-out: Growth Inhibition Ratio (%)
How it was run: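 Cells seeded at 2500/well in DMEM/F12 with 10% FBS, grown overnight, then exposed to compound for 68 h at 37 °C, 5% CO2. Viability by MTT (0.5 mg/ml, 4 h), DMSO-solubilised, OD 490 nm; IC50 is concentration giving 50% growth inhibition relative to controls.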

LoVo cells = assay: LoVo Cell Growth Inhibition Test (MTT Assay); type: cell-based; conditions: Homo sapiens, 72 h incubation
Experimental: LoVo Cell Growth Inhibition Test (MTT Assay)
1. Cell strains: LoVo (human intestinal cancer cell strains);
1. A plate (10 cm) of cells in logarithmic growth phase normally cultured was collected;
2. The culture solution was sucked out. The plate was washed with 5 ml of PBS 1-2 times;
3. PBS was sucked out. 2 ml of 0.25% pancreatin was added to infiltrate the cells for 1 min;
4. The pancreatin was sucked out. The culture plate was placed in an incubator. Digestion was carried out for about 4 min at 37° C.;
5. 4 ml of complete culture solution was added in the culture plate to stop the digestion. The cells were carefully scoured with micropipette (1 ml) to give a uniform cell suspension. The suspension was implanted into a 96-well cell culture plate by 3000-4000 cells/100 μl per well. The culture plate was incubated overnight under 5% CO2 at 37° C. In day 2, 100 μl of culture solution comprising a compound was added into each well, and further incubated for 72 h under 5% CO2 at 37° C.
6. The culture solution was sucked out;
7. 100 μl of serum-free culture solution containing 0.5 mg/ml MTT was added in each well, and incubated for 4 h;
8. The culture solution was carefully sucked out;
9. 100 μl of DMSO was added in each well and vibrated to dissolve;
10. OD values were determined at 490 nM.
1. Calculation of Relative Inhibition Ratio The inhibition ratio of a compound on cell growth=(PC−n)/(PC−NC)×100%
IC50: Concentration of a compound where inhibition ratio was 50%. IC50 values were fitted with Origin7.5.

Sk-Br-3 cells = assay: Sk-Br-3 Cell Growth Inhibition Test (SRB Assay); type: cell-based; conditions: Homo sapiens, 91 h incubation
Experimental: Sk-Br-3 Cell Growth Inhibition Test (SRB Assay)
1. Cell strains: Sk-Br-3 (human breast cancer cell strains);
2. SRB: available from Sigmaaldrich, goods number: S9012, lot number: 047K3751. SRB was reserved at the room temperature. 0.4% (w/v) of working solution was formulated with 1% of glacial acetic acid. The solution was reserved at 4° C.; anti-tumor compounds; DMSO
Culture medium: 90% DMEM+10% FBS;
1. A plate (10 cm) of cells in logarithmic growth phase normally cultured was collected. The culture solution was sucked out. The plate was washed with 5 mL of PBS 1-2 times;
2. PBS was sucked out. […] of 0.25% pancreatin was added to infiltrate the cells for 30 s;
3. The pancreatin was sucked out. The culture plate was placed in an incubator. Digestion was carried out for about 1.5-2 min at 37° C.;
4. 4 mL of complete culture solution was added to the culture plate to stop the digestion. The cells were carefully scoured with micropipette (1 ml) to give a uniform single cell suspension;
5. Cell suspension was counted. The suspension was diluted to 1×10^5/ml. The resulting suspension was developed uniformly on a plate by 10000 cells/100 μl per well. The culture plate was incubated overnight under 5% CO2 at 37° C. In day 2, 100 μl of culture solution comprising a compound was added in each well, and further incubated for 91 h under 5% CO2 at 37° C.
6. The culture solution was sucked out. 100 uL of TCA fixed cells which were diluted to 10% were added to each well. The plate was kept in a refrigerator for 1 h at 4° C.
7. TCA stationary liquid was sucked out. Each well was washed with 150 μL of ddH2O five times;
8. After the stationary liquid was cleansed, the plate was dried in the air at the room temperature;
9. 60 μL of SRB staining solution was added in each well. The well was stained for 15 min at the room temperature;
10. The SRB staining solution was sucked out. Each well was washed with 150 μL of 1% glacial acetic acid five times;
11. After the SRB staining solution was cleansed, the plate was dried in the air at the room temperature;
12. 100 μL of 10 mM Tris was added in each well. The plate was vibrated to dissolve out SRB;
13. OD values were determined at 570 nM.
To: OD values of the starting content of cells when the cells were developed on a plate;
PC: OD values of cells after normal growth in control wells without a compound;
Ti: OD values of cells after growth in test wells with a compound;
NC: Background OD values of blank well without a compound and cells
Therefore: Ratio of cells in test wells to normal wells (% of control cell growth)=(Ti−To)/(PC−To)×100%
Ratio GI50 was concentration of a compound at the point of 50%.
Therefore: Ratio of killed cells to inoculated cells (% of killed cells)=(Ti−To)/(To−NC)×100%
LC50 was concentration point of a compound when half of the starting inoculated concentration was reached.
Concentration of a compound at this point is defined as TGI (total growth inhibition).

## CN(C)C/C=C/C(=O)Nc1cc2c(Nc3ccc(F)c(Cl)c3)c(C#N)cnc2cc1OC1CCOC1 (stereo not shown) [Example 4, (E)-N-(4-(3-CHLORO-4-FLUOROPHENYLAMINO)-3-CYANO-7-(TETRAHYDROFURAN-3-YL-OXY)QUINOLIN-6-YL)-4-(DIMETHYLAMINO)-BUT-2-ENAMIDE]
A431 cells
  IC50: 68 nM
  Growth Inhibition Ratio (%): 80%
LoVo cells
  IC50: 8000 nM
Sk-Br-3 cells
  GI50: 148 nM

## C#Cc1cccc(Nc2c(C#N)cnc3cc(O[C@H]4CCOC4)c(NC(=O)/C=C/CN(C)C)cc23)c1 [Example 140, (S,E)-N-(3-CYANO-4-(3-ETHYNYLPHENYLAMINO)-7-(TETRAHYDROFURAN-3-YL-OXY)QUINOLIN-6-YL)-4-(DIMETHYLAMINO)-BUT-2-ENAMIDE]
A431 cells
  inhibition at 1 µM: 87%
  IC50: 26 nM
LoVo cells
  IC50: 8800 nM
Sk-Br-3 cells
  GI50: 22 nM

## Cc1ccc(COc2ccc(Nc3c(C#N)cnc4cc(OC5CCOC5)c(NC(=O)/C=C/CN(C)C)cc34)cc2Cl)cc1 (stereo not shown) [Example 19, (E)-N-(4-(4-(4-METHYLBENZYLOXY)-3-CHLOROPHENYLAMINO)-3-CYANO-7-(TETRAHYDROFURAN-3-YL-OXY)QUINOLIN-6-YL)-4-(DIMETHYLAMINO)-BUT-2-ENAMIDE]
A431 cells
  IC50: 390 nM
LoVo cells
  IC50: 2000 nM
Sk-Br-3 cells
  GI50: 63 nM

## C#Cc1cccc(Nc2c(C#N)cnc3cc(OC4CCOC4)c(NC(=O)/C=C/CN(C)C)cc23)c1 (stereo not shown) [Example 5, (E)-N-(3-CYANO-4-(3-ETHYNYLPHENYLAMINO)-7-(TETRAHYDROFURAN-3-YL-OXY)QUINOLIN-6-YL)-4-(DIMETHYLAMINO)-BUT-2-ENAMIDE]
A431 cells
  IC50: 24 nM
  Growth Inhibition Ratio (%): 85%
LoVo cells
  IC50: 8570 nM
Sk-Br-3 cells
  GI50: 24 nM

## C#Cc1cccc(Nc2c(C#N)cnc3cc(O[C@H]4CCOC4)c(NC(=O)/C=C/CN4CCOCC4)cc23)c1 [Example 145, (S,E)-N-(3-CYANO-4-(3-ETHYNYLPHENYLAMINO)-7-(TETRAHYDROFURAN-3-YL-OXY)QUINOLIN-6-YL)-4-(MORPHOLIN-4-YL)-BUT-2-ENAMIDE]
A431 cells
  IC50: 71 nM
Sk-Br-3 cells
  GI50: 831 nM

## CC(C)(C)NC/C=C/C(=O)Nc1cc2c(Nc3ccc(OCc4ccccn4)c(Cl)c3)c(C#N)cnc2cc1O[C@H]1CCOC1 [Example 153, (S,E)-N-(4-(3-CHLORO-4-(PYRIDIN-2-YL-METHOXY)PHENYLAMINO)-3-CYANO-7-(TETRAHYDROFURAN-3-YL-OXY)QUINOLIN-6-YL)-4-(TERT-BUTYLAMINO)-BUT-2-ENAMIDE]
A431 cells
  IC50: 53 nM
LoVo cells
  IC50: 5600 nM
Sk-Br-3 cells
  GI50: 6.8 nM

## CN(C)C/C=C/C(=O)Nc1cc2c(Nc3ccc(OCc4ccccc4F)c(Cl)c3)c(C#N)cnc2cc1OC1CCOC1 (stereo not shown) [Example 8, (E)-N-(4-(4-(2-FLUOROBENZYLOXY)-3-CHLOROPHENYLAMINO)-3-CYANO-7-(TETRAHYDROFURAN-3-YL-OXY)QUINOLIN-6-YL)-4-(DIMETHYLAMINO)-BUT-2-ENAMIDE]
A431 cells
  inhibition at 1 µM: 91%
  IC50: 145 nM
LoVo cells
  IC50: 1700 nM

## CN(C)C/C=C/C(=O)Nc1cc2c(Nc3ccc(OCc4ccccn4)c(Cl)c3)c(C#N)cnc2cc1O[C@H]1CCOC1 [Example 138, (S,E)-N-(4-(3-CHLORO-4-(PYRIDIN-2-YL-METHOXY)PHENYLAMINO)-3-CYANO-7-(TETRAHYDROFURAN-3-YL-OXY)QUINOLIN-6-YL)-4-(DIMETHYLAMINO)-BUT-2-ENAMIDE]
A431 cells
  inhibition at 1 µM: 89%
  IC50: 62 nM
LoVo cells
  IC50: 2100 nM
Sk-Br-3 cells
  GI50: 3.8 nM

## CN(C)C/C=C/C(=O)Nc1cc2c(Nc3ccc(OCc4ccccc4C#N)c(Cl)c3)c(C#N)cnc2cc1OC1CCOC1 (stereo not shown) [Example 13, (E)-N-(4-(4-(2-CYANOBENZYLOXY)-3-CHLOROPHENYLAMINO)-3-CYANO-7-(TETRAHYDROFURAN-3-YL-OXY)QUINOLIN-6-YL)-4-(DIMETHYLAMINO)-BUT-2-ENAMIDE]
A431 cells
  inhibition at 1 µM: 89%
  IC50: 158 nM
LoVo cells
  IC50: 2000 nM

## CCN(CC)C/C=C/C(=O)Nc1cc2c(Nc3ccc(OCc4ccccn4)c(Cl)c3)c(C#N)cnc2cc1O[C@H]1CCOC1 [Example 150, (S,E)-N-(4-(3-CHLORO-4-(PYRIDIN-2-YL-METHOXY)PHENYLAMINO)-3-CYANO-7-(TETRAHYDROFURAN-3-YL-OXY)QUINOLIN-6-YL)-4-(DIETHYLAMINO)-BUT-2-ENAMIDE]
A431 cells
  inhibition at 1 µM: 84%
  IC50: 27 nM
LoVo cells
  IC50: 2200 nM
Sk-Br-3 cells
  GI50: 11 nM

## CN(C)C/C=C/C(=O)Nc1cc2c(Nc3ccc(OCc4ccccc4)c(Cl)c3)c(C#N)cnc2cc1OC1CCOC1 (stereo not shown) [Example 12, (E)-N-(4-(4-(BENZYLOXY)-3-CHLOROPHENYLAMINO)-3-CYANO-7-(TETRAHYDROFURAN-3-YL-OXY)QUINOLIN-6-YL)-4-(DIMETHYLAMINO)-BUT-2-ENAMIDE]
A431 cells
  IC50: 147 nM
LoVo cells
  IC50: 2000 nM

## CN(C)C/C=C/C(=O)Nc1cc2c(Nc3cccc(Br)c3)c(C#N)cnc2cc1OC1CCOC1 (stereo not shown) [Example 7, (E)-N-(4-(3-BROMOPHENYLAMINO)-3-CYANO-7-(TETRAHYDROFURAN-3-YL-OXY)QUINOLIN-6-YL)-4-(DIMETHYLAMINO)-BUT-2-ENAMIDE]
A431 cells
  IC50: 160 nM
LoVo cells
  IC50: 7000 nM
Sk-Br-3 cells
  GI50: 213 nM

## CN(C)C/C=C/C(=O)Nc1cc2c(Nc3ccc(OCc4cccc(Cl)c4)c(Cl)c3)c(C#N)cnc2cc1OC1CCOC1 (stereo not shown) [Example 11, (E)-N-(4-(4-(3-CHLOROBENZYLOXY)-3-CHLOROPHENYLAMINO)-3-CYANO-7-(TETRAHYDROFURAN-3-YL-OXY)QUINOLIN-6-YL)-4-(DIMETHYLAMINO)-BUT-2-ENAMIDE]
A431 cells
  IC50: 184 nM
LoVo cells
  IC50: 1600 nM

## CN(C)C/C=C/C(=O)Nc1cc2c(Nc3ccc(OCc4cccc(C#N)c4)c(Cl)c3)c(C#N)cnc2cc1OC1CCOC1 (stereo not shown) [Example 15, (E)-N-(4-(4-(3-CYANOBENZYLOXY)-3-CHLOROPHENYLAMINO)-3-CYANO-7-(TETRAHYDROFURAN-3-YL-OXY)QUINOLIN-6-YL)-4-(DIMETHYLAMINO)-BUT-2-ENAMIDE]
A431 cells
  inhibition at 1 µM: 91%
  IC50: 370 nM
LoVo cells
  IC50: 2200 nM

## C#Cc1cccc(Nc2c(C#N)cnc3cc(O[C@H]4CCOC4)c(NC(=O)/C=C/CNC(C)(C)C)cc23)c1 [Example 146, (S,E)-N-(3-CYANO-4-(3-ETHYNYLPHENYLAMINO)-7-(TETRAHYDROFURAN-3-YL-OXY)QUINOLIN-6-YL)-4-(TERT-BUTYLAIMINO)-BUT-2-ENAMIDE]
A431 cells
  IC50: 53 nM
Sk-Br-3 cells
  GI50: 823 nM
